From patent publication US9776964B2, “Phenoxyethyl cyclic amine derivatives and their activity as EP4 receptor modulators” (Eli Lilly and Company, priority 2013, dated 2017)
Structures can show the parent of a compound that is named as a salt.

What was measured:
human EP3 (isoform VI) = target: T1, human EP3 (isoform VI) (Homo sapiens, UniProt P43115); assay: In vitro binding to human EP3 ([3H]-PGE2 displacement, membranes)
T1 sequence (P43115 1-359): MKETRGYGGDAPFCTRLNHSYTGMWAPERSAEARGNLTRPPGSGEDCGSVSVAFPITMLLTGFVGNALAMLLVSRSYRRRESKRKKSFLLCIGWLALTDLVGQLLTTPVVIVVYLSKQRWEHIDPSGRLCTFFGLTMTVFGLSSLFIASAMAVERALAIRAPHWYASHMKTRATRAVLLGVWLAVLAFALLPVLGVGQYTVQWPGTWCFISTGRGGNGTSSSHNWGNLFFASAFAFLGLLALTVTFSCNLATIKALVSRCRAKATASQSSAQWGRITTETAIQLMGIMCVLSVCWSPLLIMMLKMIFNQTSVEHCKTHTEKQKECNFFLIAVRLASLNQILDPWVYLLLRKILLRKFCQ
Procedure: (§1) hEP1 and hEP4 membranes are prepared from recombinant HEK293 cells stably expressing human EP1 (Genbank accession number AY275470) or EP4 (Genbank accession number AY429109) receptors. hEP2 and hEP3 membranes are prepared from HEK293 cells transiently transfected with EP2 (Genbank accession number AY275471) or EP3 (isoform VI: Genbank accession number AY429108) receptor plasmids. Frozen cell pellets are homogenized in homogenization buffer using a Teflon/glass homogenizer. Membrane protein is aliquoted and quick frozen on dry ice prior to storage at −80° C. […]
(§2) Kd values for [3H]-PGE2 binding to each receptor are determined by saturation binding studies or homologous competition. […] Nonspecific binding is calculated by comparing binding in the presence and absence of 2 μM of PGE2. The membranes are harvested by filtration (TomTek harvester), washed 4 times with cold buffer (10 mM MES pH 6.0 with KOH, 10 mM MgCl2), dried in a 60° C. oven, and the radioactivity is quantified as counts per minute (CPM) using a TopCount detector. Percent specific binding is calculated as the percent of the binding in the absence of any inhibitor, corrected for binding in the presence of 2 uM of PGE2. […] Results are expressed as the geometric mean±standard deviation; n=number of independent determinations. The standard deviation is calculated by the delta method, being SDlog Ki×geometric mean×ln(10).

human EP4 [1] = target: T2, human EP4 (Homo sapiens, UniProt P35408); assay: In vitro human EP4 functional antagonist activity (inhibition of PGE2-stimulated cAMP production, HTRF); type: cell-based; parameters: expressed in transfected cells; conditions: HEK293 cells expressing human EP4, EC80 of PGE2 (0.188 nM); geometric mean ± SD, n=6; read-out: IC50 measured at human EP4 (PGE2-stimulated cAMP production)
T2 sequence (P35408 whole entry): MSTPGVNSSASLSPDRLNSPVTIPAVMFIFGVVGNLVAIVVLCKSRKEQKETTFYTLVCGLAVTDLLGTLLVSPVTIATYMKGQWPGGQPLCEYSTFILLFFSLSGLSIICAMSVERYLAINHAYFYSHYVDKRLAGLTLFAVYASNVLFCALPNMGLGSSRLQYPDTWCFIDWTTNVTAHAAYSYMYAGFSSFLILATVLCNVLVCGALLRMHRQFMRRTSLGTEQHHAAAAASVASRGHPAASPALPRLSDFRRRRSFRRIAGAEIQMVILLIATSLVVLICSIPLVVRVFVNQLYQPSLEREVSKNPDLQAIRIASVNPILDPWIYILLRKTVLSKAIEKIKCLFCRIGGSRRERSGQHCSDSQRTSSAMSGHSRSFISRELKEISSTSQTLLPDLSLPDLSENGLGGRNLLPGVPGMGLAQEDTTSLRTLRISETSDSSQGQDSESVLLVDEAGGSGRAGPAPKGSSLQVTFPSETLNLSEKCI
Procedure: Assays are conducted in recombinant HEK293 cells stably expressing human EP4 receptor. The cell lines are maintained by culturing in DMEM with high glucose and pyridoxine hydrochloride (Invitrogen) supplemented with 10% fetal bovine serum (FBS), 1 mM sodium pyruvate, 10 mM HEPES, […] and 2 mM L-glutamine. Confluent cultures are grown at 37° C. in an atmosphere containing 5% CO2. Cells are harvested using 2.5% Trypsin-EDTA, suspended in freeze media (FBS with 6% DMSO) at 10^7 cells/mL and aliquots are stored in liquid nitrogen. Just before assay, cells are thawed in DMEM, centrifuged, and resuspended in cAMP buffer.
The inhibition of PGE2-stimulated cAMP production by EP4 antagonists is measured using HTRF; (Cisbio catalog #62AM4PEB). […] The HTRF signal is detected using an EnVision® plate reader (Perkin-Elmer) to calculate the ratio of fluorescence at 665 nm to 620 nm. […] Results are expressed as the geometric mean±standard deviation; n=number of independent determinations. The standard deviation is calculated by the delta method, being SDlog Ki×geometric mean×ln(10).

human EP4 [2] = target: T2, human EP4; assay: In vitro binding to human EP4 ([3H]-PGE2 displacement, membranes); parameters: expressed in transfected cells; conditions: HEK293 membranes, geometric mean ± SD, n = 6, read-out: hEP4, Ki
Procedure: as §1, §2

human EP4 [3] = target: T2, human EP4; assay: In vitro antagonist activity in human whole blood (reversal of PGE2 inhibition of LPS-induced TNFα production); type: cell-based; parameters: Blood is collected from normal volunteer donors into sodium heparin vacutainer tubes; from tissue; host or cells: human whole blood from volunteer donors; conditions: 10 μg/mL LPS + 10 nM PGE2, 20-24 hours, geometric mean ± SD, n=6, read-out: IC50 in human blood TNFα induction assay
Excerpt: The inhibitory effects of PGE2 on LPS-induced TNFα production from macrophages/monocytes are believed to be mediated by EP4 receptors (See Murase, A., et al., Life Sciences, 82:226-232 (2008)). The ability of the compound of Example 8 to reverse the inhibitory effect of PGE2 on LPS-induced TNFα production in human whole blood is an indicia of functional activity.
Blood is collected from normal volunteer donors into sodium heparin vacutainer tubes. Donors have not taken NSAIDs or celecoxib within 48 hours or glucocorticoids within two weeks of the donation. All tubes/donor are pooled into 50 mL Falcon conical centrifuge tubes and 98 μL/well is distributed into 96-well tissue culture plates (Falcon 3072). […] TNFα levels in 2 μL plasma are quantified by a commercially available enzyme immunoassay (R&D Systems DY210), using Immulon 4 HBX plates (Thermo 3855) and 3,3′,5,5′ tetramethylbiphenyl-4,4′-diamine substrate (KPL 50-76-03). The plates are read at A450-A650 on a plate reader (Molecular Devices Versamax) using SOFTmaxPRO (v. 4.3.1) software. IC50s are calculated using Graphpad Prism (v. 4) nonlinear regression, sigmoidal dose response curve fitting. Results are expressed as the geometric mean±standard deviation; n=number of independent determinations The standard deviation is calculated by the delta method, being SDlog Ki×geometric mean×ln(10).

human EP1 = target: T3, human EP1 (Homo sapiens, UniProt P34995); assay: In vitro binding to human EP1 ([3H]-PGE2 displacement, membranes); conditions: HEK293 membranes, n = 1, read-out: hEP1, Ki
T3 construct: expressed in transfected cells
T3 sequence (P34995 1-402): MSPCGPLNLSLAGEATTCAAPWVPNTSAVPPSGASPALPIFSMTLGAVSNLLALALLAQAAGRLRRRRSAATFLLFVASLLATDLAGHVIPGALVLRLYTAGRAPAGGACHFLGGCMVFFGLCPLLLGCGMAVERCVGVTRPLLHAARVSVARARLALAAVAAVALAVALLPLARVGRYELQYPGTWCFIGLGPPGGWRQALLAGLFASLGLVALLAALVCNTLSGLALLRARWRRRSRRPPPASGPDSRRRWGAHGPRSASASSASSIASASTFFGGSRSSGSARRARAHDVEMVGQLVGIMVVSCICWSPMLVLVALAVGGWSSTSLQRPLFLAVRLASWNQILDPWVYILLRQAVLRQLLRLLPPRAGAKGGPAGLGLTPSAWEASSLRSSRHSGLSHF
Procedure: as §1, §2

human EP2 = target: T4, human EP2 (Homo sapiens, UniProt P43116); assay: In vitro binding to human EP2 ([3H]-PGE2 displacement, membranes); conditions: HEK293 membranes, n = 1, read-out: hEP2, Ki
T4 construct: expressed in transfected cells; host or cells: HEK293 (transient)
T4 sequence (P43116 whole entry): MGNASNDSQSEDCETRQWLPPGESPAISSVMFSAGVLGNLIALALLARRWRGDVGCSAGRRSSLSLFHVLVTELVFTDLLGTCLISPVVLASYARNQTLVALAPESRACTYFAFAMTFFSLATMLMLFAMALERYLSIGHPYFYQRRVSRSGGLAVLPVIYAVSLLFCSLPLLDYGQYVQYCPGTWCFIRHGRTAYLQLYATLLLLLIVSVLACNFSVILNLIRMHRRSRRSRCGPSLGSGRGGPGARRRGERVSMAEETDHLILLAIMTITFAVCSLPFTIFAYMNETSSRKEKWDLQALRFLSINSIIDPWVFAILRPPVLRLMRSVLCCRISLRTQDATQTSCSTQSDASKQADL
Procedure: as §1, §2

## C[C@H](NC(=O)[C@H]1CC(F)(F)CCN1CCOc1ccccc1)c1ccc(C(=O)O)cc1 [Example 8, 4-((1S)-1-(((2R)-1-(2-phenoxyethyl)-4,4-difluoropiperidin-2-carbonyl)amino)ethyl)benzoic acid hydrochloride]
Human EP3 (isoform VI)
  Ki: > 14800 nM
Human EP4 [1]
  IC50: 1.76 ± 1.51 nM
Human EP4 [2]
  Ki: 3.68 ± 3.32 nM
Human EP4 [3]
  IC50: 78.2 ± 61 nM
Human EP1
  Ki: > 12500 nM
Human EP2
  Ki: 956 nM
